{
  "source": "patent US20130029942A1",
  "about": "“COMPOUNDS AND THERAPEUTICAL USES THEREOF” (Myrexis, Inc., priority 2003, published 2013)",
  "note": "pEC50, pIC50: −log10 of the molar value.",
  "data": [
    {"tested_on": "T-47D cells", "experiment": "Caspase cascade activation / induction of apoptosis in T-47D cells (fluorogenic N-(Ac-DEVD)-N'-ethoxycarbonyl-R110 substrate)", "type": "cell-based, human", "details": "Homo sapiens, T47D; T-47D, 24 hr; read-out: T-47D (24 hr) EC50", "values": [
      {"smiles": "CNc1nc(N(C)c2ccc(OC)cc2)c2ccccc2n1", "note": "[Example 123, (2-Methylamino-quinazolin-4-yl)-(4-methoxy-phenyl)-methyl-amine]", "pEC50": 8.10},
      {"smiles": "Cc1nc(N(C)c2ccc(F)cc2)c2ccccc2n1", "note": "[Example 124, (4-Fluoro-phenyl)-(2-methyl-quinazolin-4-yl)-methyl-amine]", "pEC50": 6.39},
      {"smiles": "COc1ccc(N(C)c2nc(C)nc3ccccc23)nn1", "note": "[Example 125, (6-Methoxy-pyridazin-3-yl)-(2-methyl-quinazolin-4-yl)-methyl-amine]", "pEC50": 6.41},
      {"smiles": "COc1cnc(N(C)c2nc(C)nc3ccccc23)cn1", "note": "[Example 126, (5-Methoxy-pyrazin-2-yl)-(2-methyl-quinazolin-4-yl)-methyl-amine]", "pEC50": 7.26},
      {"smiles": "Cc1nc(Nc2ccc(O)cc2)c2ccccc2n1", "note": "[Example 127, (4-hydroxy-phenyl)-(2-methyl-quinazolin-4-yl)-amine]", "pEC50": "< 5.00"},
      {"smiles": "COc1ccc(N(C)c2nc(N(C)C)nc3ccccc23)cn1", "note": "[Example 128, (2-Dimethylamino-quinazolin-4-yl)-(6-methoxy-pyridin-3-yl)-methyl-amine]", "pEC50": 7.24},
      {"smiles": "CNc1nc(N(C)c2ccc(OC)nc2)c2ccccc2n1", "note": "[Example 129, (2-Methylamino-quinazolin-4-yl)-(6-methoxy-pyridin-3-yl)-methyl-amine]", "pEC50": 7.57},
      {"smiles": "C[C@H]1CC[C@@H](Nc2nc(Cl)nc3ccccc23)CC1", "note": "[Example 130, (2-Chloro-quinazolin-4-yl)-(cis-4-methylcyclohexyl)-amine]", "pEC50": "< 5.00"},
      {"smiles": "C[C@H]1CC[C@H](Nc2nc(Cl)nc3ccccc23)CC1", "note": "[Example 131, (2-chloro-quinazolin-4-yl)-(trans-4-methylcyclohexyl)-amine]", "pEC50": "< 5.00"},
      {"smiles": "CN(c1nc(Cl)nc2ccccc12)[C@H]1CC[C@@H](C)CC1", "note": "[Example 132, (2-Chloro-quinazolin-4-yl)-(cis-4-methylcyclohexyl)-methyl-amine]", "pEC50": "< 5.00"},
      {"smiles": "CN(c1nc(Cl)nc2ccccc12)[C@H]1CC[C@H](C)CC1", "note": "[Example 133, (2-Chloro-quinazolin-4-yl)-(trans-4-methylcyclohexyl)-methyl-amine]", "pEC50": "< 5.00"},
      {"smiles": "Cc1nc(N(C)c2cnccn2)c2ccccc2n1", "note": "[Example 134, (2-Methyl-quinazolin-4-yl)-(pyrazin-2-yl)-methyl-amine]", "pEC50": "< 5.00"},
      {"smiles": "Cc1nc(Nc2ccncc2)c2ccccc2n1", "note": "[Example 135, (2-Methyl-quinazolin-4-yl)-(pyridin-4-yl)-amine]", "pEC50": "< 5.00"},
      {"smiles": "Cc1nc(N(C)c2ccncc2)c2ccccc2n1", "note": "[Example 136, (2-Methyl-quinazolin-4-yl)-(pyridin-4-yl)-methyl-amine]", "pEC50": "< 5.00"},
      {"smiles": "COc1ccc(Nc2nc(C)nc3ccccc23)nc1", "note": "[Example 137, (5-Methoxy-pyridin-2-yl)-(2-methyl-quinazolin-4-yl)-amine]", "pEC50": "< 5.00"},
      {"smiles": "COc1ccc(N(C)c2nc(C)nc3ccccc23)nc1", "note": "[Example 138, (5-Methoxy-pyridin-2-yl)-(2-methyl-quinazolin-4-yl)-methyl-amine]", "pEC50": 7.82},
      {"smiles": "COc1ccc(N(c2nc(C)nc3ccccc23)C(F)F)cc1", "note": "[Example 139, Difluoromethyl-(4-methoxy-phenyl)-(2-methyl-quinazolin-4-yl)-amine]", "pEC50": 5.33},
      {"smiles": "COc1ccc(N(C)c2nc(C)nc3nccnc23)cc1", "note": "[Example 140, (4-Methoxy-phenyl)-(2-methyl-pteridin-4-yl)-methyl-amine]", "pEC50": 7.57},
      {"smiles": "COc1cnc(Nc2nc(C)nc3ccccc23)nc1", "note": "[Example 141, (5-Methoxy-pyrimidin-2-yl)-(2-methyl-quinazolin-4-yl)-amine]", "pEC50": "< 5.00"}
    ]},
    {"tested_on": "T-47D cells", "experiment": "Caspase cascade activation / induction of apoptosis in T-47D cells (fluorogenic N-(Ac-DEVD)-N'-ethoxycarbonyl-R110 substrate)", "type": "cell-based, human", "details": "T-47D, 24 hr", "values": [
      {"smiles": "C[C@H]1CC[C@H](Nc2nc(Cl)nc3ccccc23)CC1", "note": "[Example 131, (2-chloro-quinazolin-4-yl)-(trans-4-methylcyclohexyl)-amine]", "T-47D (24 hr) Ratio (caspase activity, net RFU compound / control)": 1.2}
    ]},
    {"tested_on": "P388 murine leukemia cell line", "experiment": "P388 cytotoxicity (ATP-Lite, 72 hours)", "type": "cell-based", "details": "Mus musculus, P388, 72 hours", "experimental": "A P388 murine leukemia cell line was obtained from NCI, Frederick, Md. P388 cells were cultured in RPMI-1640 supplemented with 10% fetal bovine serum, 2 mM Glutamax, 1 mM sodium pyruvate, 0.1 mM non-essential amino acids and 10 mM HEPES. Cells were grown at 37° C. in a humidified 5% CO2 atmosphere. Exponentially growing P388 cells were plated at 5,000 cells/well in a 96-well flat-bottomed microtiter plate (Corning, Costar #3595). […] Cellular viability was determined 72 hours later by measuring intracellular ATP with ATP-Lite assay system. The effect of compounds on cell viability was calculated by comparing the ATP levels of cells exposed to test compound with those of cells exposed to DMSO. […] Data was analyzed by Prism software (GraphPad; San Diego, Calif.) by fitting it to a sigmoidal dose response curve.", "values": [
      {"smiles": "COC(=O)COc1ccc(N(C)c2nc(C)nc3ccccc23)cc1", "note": "[Example 143, {4-[Methyl-(2-methyl-quinazolin-4-yl)-amino]phenoxy}-acetic acid methyl ester]", "pIC50": 5.66},
      {"smiles": "Cc1nc(N(C)c2ccc(OCC(=O)O)cc2)c2ccccc2n1", "note": "[Example 144, {4-[Methyl-(2-methyl-quinazolin-4-yl)-amino]phenoxy}-acetic acid]", "pIC50": 5.77},
      {"smiles": "COc1ccc(N(C)c2nc(NCCN)nc3ccccc23)cc1", "note": "[Example 145, N^2-(2-Amino-ethyl)-N^4-(4-methoxy-phenyl)-N^4-methyl-quinazoline-2,4-diamine]", "pIC50": 7.42},
      {"smiles": "COc1ccc(N(C)c2nc(OC(C)C)nc3ccccc23)cc1", "note": "[Example 156, (2-Isopropoxy-quinazolin-4-yl)-(4-methoxy-phenyl)-methyl-amine]", "pIC50": 8.22},
      {"smiles": "CNc1nc(N(C)c2ccc(OC)c(OC)c2)c2ccccc2n1", "note": "[Example 167, N^4-(3,4-Dimethoxy-phenyl)-N^2,N^4-dimethyl-quinazoline-2,4-diamine]", "pIC50": 7.82},
      {"smiles": "COc1ccc(N(C)c2nc(N(C)C)nc3ccccc23)cc1OC", "note": "[Example 168, N^4-(3,4-Dimethoxy-phenyl)-N^2,N^2,N^4-trimethyl-quinazoline-2,4-diamine]", "pIC50": 7.35},
      {"smiles": "CONc1nc(N(C)c2ccc(OC)cc2)c2ccccc2n1", "note": "[Example 172, N-{4-[(4-Methoxy-phenyl)-methyl-amino]-quinazolin-2-yl}-O-methyl-hydroxylamine]", "pIC50": 8.70},
      {"smiles": "COc1ccc(N(C)c2nc(N(C)CCO)nc3ccccc23)cc1", "note": "[Example 174, 2-({4-[(4-Methoxy-phenyl)-methyl-amino]-quinazolin-2-yl}-methyl-amino)-ethanol]", "pIC50": 7.66},
      {"smiles": "COc1ccc(N(C)c2nc(NCCN)nc3ccc(OC)cc23)cc1", "note": "[Example 175, N^2-(2-Amino-ethyl)-6-methoxy-N^4-(4-methoxy-phenyl)-N^4-methyl-quinazoline-2,4-diamine]", "pIC50": 5.30},
      {"smiles": "COc1ccc(N(C)c2nc(C)nc3sccc23)cc1", "note": "[Example 176, (4-Methoxy-phenyl)-methyl-(2-methyl-thieno[2,3-d]pyrimidin-4-yl)-amine]", "pIC50": 8.52},
      {"smiles": "COc1ccccc1CN(C)c1nc(Cl)nc2ccccc12", "note": "[Example 177, (2-Chloro-quinazolin-4-yl)-(2-methoxy-benzyl)-methyl-amine]", "pIC50": 6.01},
      {"smiles": "COc1ccc(N(C)c2nc(NCCCl)nc3ccccc23)cc1", "note": "[Example 178, N^2-(2-Chloro-ethyl)-N^4-(4-methoxy-phenyl)-N^4-methyl-quinazoline-2,4-diamine]", "pIC50": 7.74},
      {"smiles": "COc1cccc(CN(C)c2nc(Cl)nc3ccccc23)c1", "note": "[Example 179, (2-Chloro-quinazolin-4-yl)-(3-methoxy-benzyl)-methyl-amine]", "pIC50": 5.85},
      {"smiles": "COc1ccc(N(C)c2nc(NCCCO)nc3ccccc23)cc1", "note": "[Example 180, 3-{4-[(4-Methoxy-phenyl)-methyl-amino]-quinazolin-2-ylamino}-propan-1-ol]", "pIC50": 8.30},
      {"smiles": "COc1ccc(N(C)c2nc(NCCCCO)nc3ccccc23)cc1", "note": "[Example 181, 4-{4-[(4-Methoxy-phenyl)-methyl-amino]-quinazolin-2-ylamino}-butan-1-ol]", "pIC50": 7.89},
      {"smiles": "CCOc1nc(N(C)c2ccc(OC)cc2)c2ccccc2n1", "note": "[Example 182, (2-Ethoxy-quinazolin-4-yl)-(4-methoxy-phenyl)-methyl-amine]", "pIC50": 5.64},
      {"smiles": "COc1ccc(N(C)c2nc(N(C)CCCN(C)C)nc3ccccc23)cc1", "note": "[Example 183, N^2-(3-Dimethylamino-propyl)-N^4-(4-methoxy-phenyl)-N^2,N^4-dimethyl-quinazoline-2,4-diamine]", "pIC50": 6.31},
      {"smiles": "COc1ccc(N(C)c2nc(NCCCCN)nc3ccccc23)cc1", "note": "[Example 184, N^2-(4-Amino-butyl)-N^4-(4-methoxy-phenyl)-N^4-methyl-quinazoline-2,4-diamine]", "pIC50": 6.30},
      {"smiles": "COc1ccc(N(C)c2nc(C)nc3ccsc23)cc1", "note": "[Example 185, (4-Methoxy-phenyl)-methyl-(2-methyl-thieno[3,2-d]pyrimidin-4-yl)-amine]", "pIC50": 8.15},
      {"smiles": "COc1ccc(N(C)c2nc(NCCO)nc3ccc([N+](=O)[O-])cc23)cc1", "note": "[Example 186, 2-{4-[(4-Methoxy-phenyl)-methyl-amino]-6-nitro-quinazolin-2-ylamino}-ethanol]", "pIC50": 5.74},
      {"smiles": "COC(=O)CN(C)c1nc(N(C)c2ccc(OC)cc2)c2ccccc2n1", "note": "[Example 187, ({4-[(4-Methoxy-phenyl)-methyl-amino]-quinazolin-2-yl}-methyl-amino)-acetic acid methyl ester]", "pIC50": 6.96},
      {"smiles": "COc1ccc(N(C)c2nc(C)nc3c2CCCC3)cc1", "note": "[Example 188, (4-Methoxy-phenyl)-methyl-(2-methyl-5,6,7,8-tetrahydro-quinazolin-4-yl)-amine]", "pIC50": 8.70},
      {"smiles": "COc1ccc(N(C)c2nc(NCCO)nc3ccc(N)cc23)cc1", "note": "[Example 189, 2-{6-Amino-4-[(4-methoxy-phenyl)-methyl-amino]-quinazolin-2-ylamino}-ethanol]", "pIC50": 6.34},
      {"smiles": "CONc1nc2c(c(N(C)c3ccc(OC)cc3)n1)CCCC2", "note": "[Example 190, N-{4-[(4-Methoxy-phenyl)-methyl-amino]-5,6,7,8-tetrahydro-quinazolin-2-yl}-O-methyl-hydroxylamine]", "pIC50": 8.22},
      {"smiles": "CCOC(=O)CNc1nc2c(c(N(C)c3ccc(OC)cc3)n1)CCCC2", "note": "[Example 191, {4-[(4-Methoxy-phenyl)-methyl-amino]-5,6,7,8-tetrahydro-quinazolin-2-ylamino}-acetic acid ethyl ester]", "pIC50": 6.33},
      {"smiles": "CNc1nc2c(c(N(C)c3ccc(OC)cc3)n1)CCCC2", "note": "[Example 192, N^4-(4-Methoxy-phenyl)-N^2,N^4-dimethyl-5,6,7,8-tetrahydro-quinazoline-2,4-diamine]", "pIC50": 7.72}
    ]}
  ]
}
